Experimental data taken from patent publication US11091476B2, “Protein kinase inhibitors, preparation method and medical use thereof” (Gan & Lee Pharmaceuticals, priority 2015, dated 2021).

Key:
CDK6/CyclinD3 = CDK6/CyclinD3 (Homo sapiens (Human), UniProt Q00534); test: CDK kinase inhibitory activity, ADP-Glo Kinase Assay, CDK6/CyclinD3; assay type: biochemical; conditions: for CDK1/CDK6 / CDK9/CDK6 / Pim-1/CDK6: ratio of IC50s; for CDK1/CDK6: selectivity for CDK6 over CDK1; for CDK9/CDK6: selectivity for CDK6 over CDK9; for Pim-1/CDK6: selectivity for CDK6 over Pim-1
Procedure: (§1) Measurement of CDK kinase inhibitory activity of the compounds of this disclosure.
(§2) In vitro inhibitory effect of the compounds of the disclosure on CDK (CDK1, CDK4 and CDK6) kinase activity was tested by the following method.
(§3) 1.1 Instrument and Kit Information
(§4) 1.2 Experimental Preparation • 1.2.1 Preparation of Kinase Reaction Buffer I: The 5×Reaction Buffer A (Promega; V307A-C) provided in the kit was mixed and diluted with MILLI-Q® H2O and 0.1 M DTT (dithiothreitol) to give 4× kinase buffer, and then MILLI-Q® H2O was further added to finally formulate the solution into 1× Kinase buffer.
(§5) 1 μl of 10 mM standard substance stock solution was taken and added to 9 μl of kinase reaction buffer I and mixed well; then 90 μl of kinase reaction buffer I was added and mixed well; then 100 μl of kinase reaction buffer I was added and mixed well. The final concentration was 50 μM. • b. 40 μl of kinase reaction buffer II was added into B2 to B10 of a 96-well plate, and 50 μl of the above solution was added into B1; • c. 10 μl of solution was taken from well B1, added into B2, and mixed well; then 10 μl of the resulting solution was taken and added into B3, and dilution was carried out in sequence to B9, so as to obtain control solutions that are diluted by 5-fold sequentially. • (2) Preparation of test compound solution: • a. Test compound solutions at a certain concentration were taken, respectively, diluted with kinase reaction buffer I to a final concentration of 50 μM compound solution; • b. 40 μl of kinase reaction buffer II was added into H2 to H10 of the 96-well plate; and 50 μl of the above solution was added into H1; • c. 10 μl of solution was taken from well H1, added into H2, and mixed well; then 10 μl of the resulting solution was taken and added into H3, and dilution was carried out in sequence to H9, so as to obtain test compound solutions that are diluted by 5-fold sequentially. • 1.2.4 Preparation of a mixed solution of reaction substrate and ATP: • a. Preparation of ATP solution: • 200 μl of 0.1 mM ATP solution: 2 μl of 10 mM ATP was added to 198 μl of kinase reaction buffer I; • 300 μl of 50 μM ATP solution: 150 μl of kinase reaction buffer I was added to 150 μl of the above 0.1 mM ATP solution; • b. Preparation of 300 μl of reaction substrate solution: • 150 μl 1 μg/μl reaction substrate stock solution was added to 150 μl kinase reaction buffer I, and mixed well; • c. The above a/b solutions were mixed to obtain mixed solutions, respectively.
(§6) 1.3 Experimental process: • 1.3.1: 2 μl of compound solutions of various concentrations were taken, added to a 384-well plate, and centrifuged 3 minutes; • 1.3.2: 4 μl of kinase solution was added to each well, centrifuged at 5000 rpm and 18° C. for 10 minutes, and shaken on a plate shaker for 10 minutes; • 1.3.3: 4 μl of mixed solution of substrate and ATP was added to each well, centrifuged at 5000 rpm and 18° C. for 10 minutes, and shaken on a plate shaker at 37° C. for 90 minutes; • 1.3.4: The 384-well plate was taken out, and allowed to stand to room temperature; • 1.3.5: 10 μl of ADP-GLO™ reagent was added to each well, centrifuged at 5000 rpm and 18° C. for 18 minutes, and shaken on a plate shaker at 25° C. for 40 minutes, and then the reaction was stopped; • 1.3.6: 20 μl of kinase detection reagent was added to each well, centrifuged at 5000 rpm and 18° C. for 10 minutes, and shaken on a plate shaker at 25° C. for 30 minutes; and • 1.3.7: M1000pro MICROPLATE READER was used to read […] values.
(§7) The inhibition rate of each compound at each concentration point was calculated by the formula as follows and curve fitting was performed by GraphPad Prism 5 software to obtain the IC50 value.

CDK9/CyclinD3 = CDK9/CyclinD3 (Homo sapiens (Human), UniProt P50750); test: Kinase inhibitory activity, ADP-Glo Kinase Assay, CDK9/CyclinD3; assay type: biochemical
Procedure: as §3, §4, §5, §6, §7

Pim-1 = Pim-1 (Homo sapiens (Human), UniProt P11309); test: Kinase inhibitory activity on Pim-1; assay type: biochemical
Procedure: as §4, §5, §6, §7

CDK1/CyclinA2 = CDK1/CyclinA2 (Homo sapiens (Human), UniProt P06493); test: CDK kinase inhibitory activity, ADP-Glo Kinase Assay, CDK1/CyclinA2; assay type: biochemical
Procedure: as §1, §2, §3, §4, §5, §6, §7

[1] = tested on: U87-luc orthotopic brain xenograft; test: Pharmacodynamic study in U87-luc orthotopic brain xenograft model, median survival; assay type: in vivo, BALB/c nude mice; conditions: Temozolomide 3 mg/kg IP Day 0, 7, 14, 21 and 28; survival time range in brackets
Source text: Pharmacodynamic study of the compound 17 of this disclosure and the combination of compound 17 of the disclosure and temozolomide in a U87-luc orthotopic brain xenograft model
Adult female BALB/c nude mice were used as test animals. A U87-luc orthotopic brain xenograft model was used to study the effect of representative compound 17 of this disclosure on the median survival of female BALB/c nude mice after intragastric administration.
Healthy adult female BALB/c nude mice, 8 mice/group, 6-8 weeks old, weighing 18-22 g, purchased from Shanghai SIPPR-BK Laboratory Animal Co., Ltd., Animal Production License No: 2008001658261; 2008001658263. • 7.2.3 Preparation of the test compounds
An appropriate amount of compound 17 was weighed, and added with 0.1% hydroxyethyl cellulose/0.5% TWEEN®80 as vehicle to 0.3125 mg/ml;
An appropriate amount of Temozolomide sample was weighed, and added with 0.1% CMC-Na+0.25% TWEEN®80 as vehicle to 0.3 mg/ml.
Adult female BALB/c nude mice were anesthetized by intraperitoneal injection of sodium pentobarbital at a dose of 80 mg/kg. To relieve pain, animals were injected subcutaneously with buprenorphine at the time points 30 minutes before operation and 6 hours after operation at a dose of 0.1 mg/kg. Animals were observed after anesthesia until all animals had awakened.
The anesthetized animals were properly fixed, the animals' head skin was sterilized with 70% ethanol, and an approximately 10 mm long incision was made on the right side of the midline from the forehead to the ear line. 3×10^5 U87-luc cells (3 μl, mixture of PBS and Matrigel at a ratio of 4:1) were inoculated at the right frontal lobe that is 2 mm away from the right side of the bregma and is 1 mm away from the front side of the coronal suture in each animal. The incision was sutured with a No. 6 suture, and sterilized with polyvinylpyrrolidone. Animals are kept warm until anabiosis. Six days after tumor cell transplantation, tumor animals were grouped by stratified randomization based on […] signal intensity values, and the average bioluminescence reached 2.812E+07 photons/sec when the groups were administered in groups. Different animal groups were administered at different doses for a total of 35 days.

How did the IC50 (CDK6/CyclinD3) turn out when `CC1=Nc2c(F)cc(-c3nc(Nc4ccc(N5CCNCC5)cn4)ncc3F)cc2C1(C)C` [Example 1, 5-fluoro-4-(7-fluoro-2,3,3-trimethyl-3H-indol-5-yl)-N-(5-(piperazin-1-yl)pyridin-2-yl)pyrimidine-2-amino] was run?
Its IC50 is 43 nM.

And the CDK1/CDK6 (CDK6/CyclinD3)?
The CDK1/CDK6 was 51.68.

And the CDK9/CDK6 (CDK6/CyclinD3)?
The CDK9/CDK6 was 5.69.

What about the Pim-1/CDK6 (CDK6/CyclinD3) of the same compound?
The Pim-1/CDK6 was 5.12.

What about the IC50 (CDK9/CyclinD3) of the same compound?
Its IC50 is 245 nM.

And the IC50 (Pim-1)?
Its IC50 is 220 nM.

Which results are given for `CCN1CCN(Cc2ccc(Nc3ncc(F)c(-c4cc(F)c5c(c4)C4(CCCC4)C(C)=N5)n3)nc2)CC1` [Example 3]?
IC50 (CDK6/CyclinD3): 79.1 nM; IC50 (Pim-1): 198 nM

How did the IC50 (CDK6/CyclinD3) turn out when `CCC1(C)C(C)=Nc2c(F)cc(-c3nc(Nc4ccc(N5CCNCC5)cn4)ncc3F)cc21` (stereo not drawn) [Example 7, 4-(3-ethyl-7-fluoro-2,3-dimethyl-3H-indol-5-yl)-5-fluoro-N-(5-(piperazin-1-yl)pyridin-2-yl)pyrimidine-2-amino] was run?
Its IC50 is 3.26 nM.

And the CDK1/CDK6 (CDK6/CyclinD3)?
The CDK1/CDK6 was 25.71.

And the CDK9/CDK6 (CDK6/CyclinD3)?
Its CDK9/CDK6 is 1.40.

And the Pim-1/CDK6 (CDK6/CyclinD3)?
Its Pim-1/CDK6 is 141.53.

And the IC50 (CDK9/CyclinD3)?
The IC50 was 4.58 nM.

What about the IC50 (Pim-1) of the same compound?
The IC50 was 461 nM.

`CCN1CCN(Cc2ccc(Nc3ncc(F)c(-c4ccc5c(c4)C4(CCCC4)C(C)=N5)n3)nc2)CC1` [Example 9, N-(5-((4-ethylpiperazin-1-yl)methyl)pyridin-2-yl)-5-fluoro-4-(2′-methylspiro [cyclopentane-1,3′-indol]-5′-yl)pyrimidine-2-amino] was tested. Which IC50 (CDK6/CyclinD3) did it give?
Its IC50 is 20.4 nM.

What about the CDK1/CDK6 (CDK6/CyclinD3) of the same compound?
The CDK1/CDK6 was 13.13.

And the CDK9/CDK6 (CDK6/CyclinD3)?
Its CDK9/CDK6 is 0.71.

And the Pim-1/CDK6 (CDK6/CyclinD3)?
The Pim-1/CDK6 was 8.51.

What about the IC50 (CDK1/CyclinA2) of the same compound?
The IC50 was 268 nM.

What about the IC50 (CDK9/CyclinD3) of the same compound?
The IC50 was 14.4 nM.

And the IC50 (Pim-1)?
Its IC50 is 174 nM.

What does the source list for `CC1=Nc2c(F)cc(-c3nc(Nc4ccc(C5CCNCC5)cn4)ncc3F)cc2C12CCCC2` [Example 13, 5-Fluoro-4-(7′-fluoro-2′-methylspiro[cyclopentane-1,3′-indol]-5′-yl)-N-(5-(piperidin-4-yl)pyridin-2-yl)pyrimidine-2-amino]?
IC50 (CDK6/CyclinD3): 0.39 nM; CDK1/CDK6 (CDK6/CyclinD3): 838.46; CDK9/CDK6 (CDK6/CyclinD3): 6.56; Pim-1/CDK6 (CDK6/CyclinD3): 5.69; IC50 (CDK1/CyclinA2): 327 nM; IC50 (CDK9/CyclinD3): 2.56 nM; IC50 (Pim-1): 2.22 nM

With `CC1=Nc2ccc(-c3nc(Nc4ccc(N5CCNCC5)cn4)ncc3F)cc2C12CCCC2` [Example 14, 5-fluoro-4-(2′-methylspiro[cyclopentane-1,3′-indol]-5′-yl)-N-(5-(piperazin-1-yl)pyridin-2-yl)pyrimidine-2-amino] as the compound, how does the IC50 (CDK6/CyclinD3) read?
The IC50 was 4.07 nM.

And the CDK1/CDK6 (CDK6/CyclinD3)?
Its CDK1/CDK6 is 57.40.

What about the Pim-1/CDK6 (CDK6/CyclinD3) of the same compound?
The Pim-1/CDK6 was 7.03.

And the IC50 (CDK1/CyclinA2)?
The IC50 was 234 nM.

And the IC50 (Pim-1)?
Its IC50 is 28.6 nM.

Which IC50 (CDK6/CyclinD3) does the source give for `CCC1(CC)C(C)=Nc2c(F)cc(-c3nc(Nc4ccc(N5CCN(C)CC5)cn4)ncc3F)cc21` [Example 16, 4-(3,3-diethyl-7-fluoro-2-methyl-3H-indol-5-yl)-5-fluoro-N-(5-(4-methylpiperazin-1-yl)pyridin-2-yl)pyrimidine-2-amino] here?
Its IC50 is 9.02 nM.

What about the CDK1/CDK6 (CDK6/CyclinD3) of the same compound?
The CDK1/CDK6 was 10.61.

What about the CDK9/CDK6 (CDK6/CyclinD3) of the same compound?
Its CDK9/CDK6 is 1.81.

What about the Pim-1/CDK6 (CDK6/CyclinD3) of the same compound?
Its Pim-1/CDK6 is 76.10.

What about the IC50 (CDK9/CyclinD3) of the same compound?
Its IC50 is 16.4 nM.

What about the IC50 (Pim-1) of the same compound?
The IC50 was 686 nM.

What does the source list for `CCC1(C)C(C)=Nc2c(F)cc(-c3nc(Nc4ccc(C5CCN(C)CC5)cn4)ncc3F)cc21` (stereo not drawn) [Example 24, 4-(3-ethyl-7-fluoro-2,3-dimethyl-3H-indol-5-yl)-5-fluoro-N-(5-(1-methylpiperidin-4-yl)pyridin-2-yl)pyrimidine-2-amino]?
IC50 (CDK6/CyclinD3): 12.9 nM; CDK1/CDK6 (CDK6/CyclinD3): 5.94; CDK9/CDK6 (CDK6/CyclinD3): 0.13; Pim-1/CDK6 (CDK6/CyclinD3): 5.66; IC50 (CDK1/CyclinA2): 76.4 nM; IC50 (CDK9/CyclinD3): 1.74 nM; IC50 (Pim-1): 72.8 nM

`CC1=Nc2c(F)cc(-c3nc(Nc4ccc(N5CCN(CCO)CC5)cn4)ncc3F)cc2C12CCCC2` [Example 28, 2-(4-(6-((5-fluoro-4-(7′-fluoro-2′-methylspiro[cyclopentane-1,3′-indol]-5′-yl)pyrimidin-2-yl)amino)pyridin-3-yl)piperazin-1-yl)ethanol] was tested. Which IC50 (CDK6/CyclinD3) did it give?
Its IC50 is 6.24 nM.

And the CDK1/CDK6 (CDK6/CyclinD3)?
Its CDK1/CDK6 is 52.63.

And the CDK9/CDK6 (CDK6/CyclinD3)?
Its CDK9/CDK6 is 0.15.

What about the IC50 (CDK1/CyclinA2) of the same compound?
The IC50 was 328 nM.

What about the IC50 (CDK9/CyclinD3) of the same compound?
Its IC50 is 0.96 nM.

How did the IC50 (CDK6/CyclinD3) turn out when `CC1=Nc2c(F)cc(-c3nc(Nc4ccc(C5CCN(CCO)CC5)cn4)ncc3F)cc2C12CCCC2` [Example 30, 2-(4-(6-((5-fluoro-4-(7′-fluoro-2′-methylspiro[cyclopentane-1,3′-indol]-5′-yl)pyrimidin-2-yl)amino)pyridin-3-yl)piperidin-1-yl)ethanol] was run?
Its IC50 is 0.49 nM.

What about the CDK1/CDK6 (CDK6/CyclinD3) of the same compound?
The CDK1/CDK6 was 360.37.

What about the CDK9/CDK6 (CDK6/CyclinD3) of the same compound?
Its CDK9/CDK6 is 0.88.

And the IC50 (CDK1/CyclinA2)?
The IC50 was 177 nM.

What about the IC50 (CDK9/CyclinD3) of the same compound?
The IC50 was 0.43 nM.

For `Cn1nnc2c(C(N)=O)ncn2c1=O` [Temozolomide, reference compound], which Medium survival [1] is on record?
The Medium survival was 47(38-83) days.
